The species named for one test is Rattus norvegicus. Description: Inhibition of VGLUT in rat brain assessed as [3H]-L-Glu uptake into synaptic vesicles at 250 uM relative to control. The test is classed as tissue-based.
Test [1] in a line: Inhibition of VGLUT-mediated [3H]-L-Glu uptake into synaptic vesicles in rat brain. The test is classed as tissue-based.
Test [2] in a line: Inhibition of VGLUT (unknown origin). Set-up: species or system Homo sapiens.
Test [3] in a line: Competitive inhibition of VGLUT-mediated [3H]-L-Glu uptake into synaptic vesicles in rat brain by Lineweaver-Burk plot analysis. The test is classed as tissue-based.

On to `CC(=O)O[C@H]1CC[C@@]2(C)C(=CC[C@H]3[C@@H]4CC[C@H](C(C)=O)[C@@]4(C)CC[C@@H]32)C1`, for which, in the test listed under Rattus norvegicus, the inhibition was 86%.

Turning to `CC(=O)[C@H]1CC[C@H]2[C@@H]3CC=C4C[C@@H](O)CC[C@]4(C)[C@H]3CC[C@]12C`, the inhibition in the test filed under Rattus norvegicus was determined as 100%.

As for `O=C(O)c1cc(C(=O)O)c2ccc3cc4ccccc4cc3c2n1`, in test [1], the IC50 came to 70 µM. Also, in the test filed under Rattus norvegicus, the inhibition was determined as 26%.

For the compound `C[C@]12CC[C@@H]3c4ccc(OC(=O)CCC(=O)O)cc4CC[C@H]3[C@@H]1CCC2=O`, the inhibition in the test filed under Rattus norvegicus was found to be 109%.

`CC(=O)C1CCC2C3CC=C4CC(OS(=O)(=O)O)CCC4(C)C3CCC12C` (centres undefined): in the test listed under Rattus norvegicus, the inhibition turned out to be 31%.

As to `N[C@@]1(C(=O)O)CC[C@@H](C(=O)O)C1`, the Ki in test [2] stood at 700 µM.

Regarding `O=C(O)c1cc(C(=O)O)c2c(ccc3cc4ccccc4cc32)n1`, half-maximal inhibition in test [1] (IC50) was put at 71 µM. The inhibition in the test filed under Rattus norvegicus amounted to 17%.

`CC(=O)[C@H]1CC[C@H]2[C@@H]3CC[C@@H]4C[C@@H](OS(=O)(=O)O)CC[C@]4(C)[C@H]3CC[C@]12C` gave a Ki in test [3] of 22 µM. In addition, the half-maximal inhibitory concentration (IC50) in test [1] turned out to be 42 µM. Further, the inhibition in the test filed under Rattus norvegicus was 15%.

`Cc1cc(-c2ccc(/N=N/c3c(S(=O)(=O)O)cc4cc(S(=O)(=O)O)cc(N)c4c3O)c(C)c2)ccc1/N=N/c1c(S(=O)(=O)O)cc2cc(S(=O)(=O)O)cc(N)c2c1O` [TRYPAN BLUE]: in test [2], the Ki was 0.05 µM.

With `C[C@]12CC[C@@H]3c4ccc(O)cc4CC[C@H]3[C@@H]1CCC2=O`, in the test filed under Rattus norvegicus, the inhibition came out at 98%.

The inhibition is the relative decrease from the control value, in per cent. The IC50 is the concentration at which inhibition is half-maximal. As a reminder, the Ki is the dissociation constant of the complex between target and ligand, obtained from inhibition or displacement.

The values are drawn from ChEMBL document CHEMBL3112560 (Bioorg Med Chem Lett, 2014).
